System: HOP-62 complex spheroids with HUVEC/MSC, viability
Assay: Anticancer human tumor HOP-62 cell line growth inhibition [RAS];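 note: spheroids exposed to agents for seven days before readout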;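 for viability, T/C: 100% = DMSO vehicle control viability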
Conditions: for IC50: curve of first compound; for viability, T/C: stronger effect = lower value; active = viability on the fitted dose curve at most 10% of control; inactive = the rest
How it was run: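 Agents were tested in combination matrices in half-log decrements from a top concentration at or near clinical Cmax (10 microM if undetermined). Targets were multi-cell spheroids of tumour lines plus HUVEC and MSC stromal cells.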

CC1(C)CCC(Nc2ncc(C(F)(F)F)c(-c3c[nH]c4c(P(C)(C)=O)c(C#N)ccc34)n2)CN1 (configuration not stated) + CCn1c(-c2cc(N3CCN(C)CC3)cnc2C(C)OC)c2c3cc(ccc31)-c1csc(n1)CC(NC(=O)C1CC1C)C(=O)N1CCCC(N1)C(=O)OCC(C)(C)C2
> 300 nM: IC50 (second compound 0.000949 µM) | IC50 (second compound 0.00949 µM) | IC50 (second compound 0.03 µM) | IC50 (second compound 0.0949 µM)
274 nM: IC50 (second compound 0.003 µM)
< 0.949 nM: IC50 (second compound 0.3 µM)
inactive: viability, T/C (second compound 0.000949 µM, first compound 0.000949 µM) 106% | viability, T/C (second compound 0.000949 µM, first compound 0.003 µM) 95.9% | viability, T/C (second compound 0.000949 µM, first compound 0.00949 µM) 54.9% | viability, T/C (second compound 0.000949 µM, first compound 0.03 µM) 71.5% | viability, T/C (second compound 0.000949 µM, first compound 0.0949 µM) 76.7% | viability, T/C (second compound 0.000949 µM, first compound 0.3 µM) 38.8% | viability, T/C (second compound 0.003 µM, first compound 0.000949 µM) 83% | viability, T/C (second compound 0.003 µM, first compound 0.003 µM) 73% | viability, T/C (second compound 0.003 µM, first compound 0.00949 µM) 61.9% | viability, T/C (second compound 0.003 µM, first compound 0.03 µM) 74% | viability, T/C (second compound 0.003 µM, first compound 0.0949 µM) 79.7% | viability, T/C (second compound 0.003 µM, first compound 0.3 µM) 48% | viability, T/C (second compound 0.00949 µM, first compound 0.000949 µM) 68.3% | viability, T/C (second compound 0.00949 µM, first compound 0.003 µM) 52.8% | viability, T/C (second compound 0.00949 µM, first compound 0.00949 µM) 67.2% | viability, T/C (second compound 0.00949 µM, first compound 0.03 µM) 68.7% | viability, T/C (second compound 0.00949 µM, first compound 0.0949 µM) 67.8% | viability, T/C (second compound 0.00949 µM, first compound 0.3 µM) 54.1% | viability, T/C (second compound 0.03 µM, first compound 0.000949 µM) 50.9% | viability, T/C (second compound 0.03 µM, first compound 0.003 µM) 56.4% | viability, T/C (second compound 0.03 µM, first compound 0.00949 µM) 72.1% | viability, T/C (second compound 0.03 µM, first compound 0.03 µM) 74.3% | viability, T/C (second compound 0.03 µM, first compound 0.0949 µM) 51.6% | viability, T/C (second compound 0.03 µM, first compound 0.3 µM) 66% | viability, T/C (second compound 0.0949 µM, first compound 0.000949 µM) 49.5% | viability, T/C (second compound 0.0949 µM, first compound 0.003 µM) 59% | viability, T/C (second compound 0.0949 µM, first compound 0.00949 µM) 64.4% | viability, T/C (second compound 0.0949 µM, first compound 0.03 µM) 66.1% | viability, T/C (second compound 0.0949 µM, first compound 0.0949 µM) 51.4% | viability, T/C (second compound 0.0949 µM, first compound 0.3 µM) 70.2% | viability, T/C (second compound 0.3 µM, first compound 0.000949 µM) 43.8% | viability, T/C (second compound 0.3 µM, first compound 0.003 µM) 59.2% | viability, T/C (second compound 0.3 µM, first compound 0.00949 µM) 70.8% | viability, T/C (second compound 0.3 µM, first compound 0.03 µM) 56.9% | viability, T/C (second compound 0.3 µM, first compound 0.0949 µM) 66.1% | viability, T/C (second compound 0.3 µM, first compound 0.3 µM) 70.7%

C#Cc1c(F)ccc2cc(O)cc(-c3ncc4c(N5CC6CCC(C5)N6)nc(OCC56CCCN5CC(F)C6)nc4c3F)c12 (configuration not stated)
inactive: viability, T/C (compound 0.0316 µM) 107% [middle of 8 runs] | viability, T/C (compound 0.1 µM) 113% [middle of 8 runs] | viability, T/C (compound 0.316 µM) 109% [middle of 8 runs] | viability, T/C (compound 1 µM) 100% [middle of 8 runs] | viability, T/C (compound 3.16 µM) 81.1% [middle of 8 runs] | viability, T/C (compound 10 µM) 48% [middle of 8 runs]

CC1(O)CCCC1n1c(=O)c(C(F)F)cc2cnc(NC3CCN(S(C)(=O)=O)CC3)nc21 (configuration not stated)
4.01% [middle of 4 runs]: viability, T/C (compound 10 µM)
inactive: viability, T/C (compound 0.0316 µM) 100% [middle of 4 runs]

C[C@@H](NC(=O)c1ncnc(N)c1Cl)c1ncc(C(=O)Nc2cc(C(F)(F)F)c(Cl)cn2)s1 + CCn1c(-c2cc(N3CCN(C)CC3)cnc2C(C)OC)c2c3cc(ccc31)-c1csc(n1)CC(NC(=O)C1CC1C)C(=O)N1CCCC(N1)C(=O)OCC(C)(C)C2
inactive: viability, T/C (second compound 0.000949 µM, first compound 0.0316 µM) 111% | viability, T/C (second compound 0.000949 µM, first compound 0.1 µM) 119% | viability, T/C (second compound 0.000949 µM, first compound 0.316 µM) 93.4% | viability, T/C (second compound 0.000949 µM, first compound 1 µM) 115% | viability, T/C (second compound 0.000949 µM, first compound 3.16 µM) 114% | viability, T/C (second compound 0.000949 µM, first compound 10 µM) 74.6% | viability, T/C (second compound 0.003 µM, first compound 0.0316 µM) 107% | viability, T/C (second compound 0.003 µM, first compound 0.1 µM) 101% | viability, T/C (second compound 0.003 µM, first compound 0.316 µM) 96.7% | viability, T/C (second compound 0.003 µM, first compound 1 µM) 104% | viability, T/C (second compound 0.003 µM, first compound 3.16 µM) 94.7% | viability, T/C (second compound 0.003 µM, first compound 10 µM) 60.6% | viability, T/C (second compound 0.00949 µM, first compound 0.0316 µM) 80.9% | viability, T/C (second compound 0.00949 µM, first compound 0.1 µM) 99.5% | viability, T/C (second compound 0.00949 µM, first compound 0.316 µM) 76.4% | viability, T/C (second compound 0.00949 µM, first compound 1 µM) 83.7% | viability, T/C (second compound 0.00949 µM, first compound 3.16 µM) 75.9% | viability, T/C (second compound 0.00949 µM, first compound 10 µM) 51.3% | viability, T/C (second compound 0.03 µM, first compound 0.0316 µM) 65.9% | viability, T/C (second compound 0.03 µM, first compound 0.1 µM) 56.7% | viability, T/C (second compound 0.03 µM, first compound 0.316 µM) 62.1% | viability, T/C (second compound 0.03 µM, first compound 1 µM) 66.4% | viability, T/C (second compound 0.03 µM, first compound 3.16 µM) 47.8% | viability, T/C (second compound 0.03 µM, first compound 10 µM) 57% | viability, T/C (second compound 0.0949 µM, first compound 0.0316 µM) 46.9% | viability, T/C (second compound 0.0949 µM, first compound 0.1 µM) 56.4% | viability, T/C (second compound 0.0949 µM, first compound 0.316 µM) 48.2% | viability, T/C (second compound 0.0949 µM, first compound 1 µM) 54.4% | viability, T/C (second compound 0.0949 µM, first compound 3.16 µM) 38.6% | viability, T/C (second compound 0.0949 µM, first compound 10 µM) 55% | viability, T/C (second compound 0.3 µM, first compound 0.0316 µM) 47.7% | viability, T/C (second compound 0.3 µM, first compound 0.1 µM) 49.6% | viability, T/C (second compound 0.3 µM, first compound 0.316 µM) 43.9% | viability, T/C (second compound 0.3 µM, first compound 1 µM) 41.3% | viability, T/C (second compound 0.3 µM, first compound 3.16 µM) 45.4% | viability, T/C (second compound 0.3 µM, first compound 10 µM) 47.3%
> 10000 nM: IC50 (second compound 0.000949 µM) | IC50 (second compound 0.003 µM) | IC50 (second compound 0.00949 µM) | IC50 (second compound 0.03 µM)
< 31.6 nM: IC50 (second compound 0.3 µM)
342 nM: IC50 (second compound 0.0949 µM)

From PubChem BioAssay AID2060892 (Molecular Pharmacology Branch, DTP, NCI, 2025)
